Source: US10695427B2, “Shape memory particles for biomedical uses” (The Johns Hopkins University, priority 2015, dated 2020)

Tests used:
[1] = test system: MDA-MB-231 cells; assay: Gemcitabine/digoxin combination therapy, tumor relapse; format: in vivo, mice
Procedure: MDA-MB-231 cells were implanted into the mammary fat pad of female Scid mice. When a tumor was palpable (day 1), the mice were randomized to three groups, which were treated with intraperitoneal injections of: saline, gemcitabine [20 mg/kg on days 5, 10, 15, 20, and 25 (arrows)], or gemcitabine and digoxin (2 mg/kg on days 1-25). Tumor volumes were determined every 2-3 d and mean±SEM (n=3) are shown.
To examine the effect of HIF inhibition on tumor relapse, MDA-MB-231 cells were implanted into the mammary fat pad of Scid mice. When the tumor became palpable, the mice were randomized to receive intraperitoneal injections of saline, gemcitabine (20 mg/kg on days 5, 10, 15, 20, and 25), or the combination of digoxin (2 mg/kg on days 1-25) and gemcitabine.

[2] = test system: MDA-MB-231 cells; assay: Paclitaxel/digoxin treatment of TNBC orthografts (tumor volume, Aldefluor assay, RT-qPCR); format: in vivo, mice; settings: tumors harvested on day 12; for percentage of ALDH+ cells (Aldefluor assay): compared with saline treatment
Procedure: MDA-MB-231 cells were implanted into the mammary fat pad of female severe combined immunodeficiency (Scid) mice. Mice were randomized to four groups, which were treated with: saline (control, C); digoxin (D); paclitaxel (P); or paclitaxel and digoxin (P/D). […] Tumors were harvested on day 12 for Aldefluor assay to determine the percentage of aldehyde dehydrogenase-expressing (ALDH^+) BCSCs (FIG. 17B) and RT-qPCR assays to quantify the expression of mRNAs encoding interleukin (IL) 8, IL-6, and the multidrug drug resistance protein MDR1 (FIG. 17C).

Row | Compound | tumor growth during treatment ([1]; intraperitoneal, gemcitabine 20 mg/kg days 5, 10, 15, 20, 25, digoxin 2 mg/kg days 1-25, Scid mice) | tumor growth after treatment was discontinued (relapse) ([1]; up to day 32, 7 days after treatment was discontinued) | percentage of ALDH+ cells (Aldefluor assay) [2] | expression of IL-6, IL-8, and MDR1 mRNA ([2]; RT-qPCR)
1 | Nc1ccn([C@@H]2O[C@H](CO)[C@@H](O)C2(F)F)c(=O)n1 [gemcitabine] | markedly reduced tumor growth | rapid tumor growth resumed |  | 
2 | C[C@H]1O[C@@H](O[C@H]2[C@@H](O)C[C@H](O[C@H]3[C@@H](O)C[C@H](O[C@H]4CC[C@@]5(C)[C@H](CC[C@@H]6[C@@H]5C[C@@H](O)[C@]5(C)[C@@H](C7=CC(=O)OC7)CC[C@]65O)C4)O[C@@H]3C)O[C@@H]2C)C[C@H](O)[C@@H]1O [digoxin] |  |  | significantly decreased | 
3 | CC(=O)O[C@H]1C(=O)[C@@]2(C)[C@H]([C@H](OC(=O)c3ccccc3)[C@]3(O)C[C@H](OC(=O)[C@H](O)[C@@H](NC(=O)c4ccccc4)c4ccccc4)C(C)=C1C3(C)C)[C@]1(OC(C)=O)CO[C@@H]1C[C@@H]2O [paclitaxel] |  |  | significantly increased | increased
